From ChEMBL document CHEMBL1201862, “PubChem BioAssay data set” (2004)
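Where inhibition never reached the appropriate level, the endpoint shown equals the highest concentration tested. Otherwise, values were interpolated linearly from a five-concentration, 48-hour dose response in 96-well plates. Here, GI50 denotes the concentration required for 50% inhibition of growth.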 Calls of active or inactive are those of the source. Rule as the data show it: active = GI50 up to about 1.1 µM and inactive = higher.

Experiments:
Assay in all cases: NCI anticancer screen, dose series, 48 h
UO-31 = tested on: UO-31
IGROV-1 = tested on: IGROV-1
HL-60 = tested on: HL-60
KM12 = tested on: KM12
OVCAR-8 = tested on: OVCAR-8
OVCAR-4 = tested on: OVCAR-4
MOLT-4 = tested on: MOLT-4
NCI-H23 = tested on: NCI-H23
HCT-116 = tested on: HCT-116
COLO 205 = tested on: COLO 205
SNB-19 = tested on: SNB-19
UACC-62 = tested on: UACC-62
NCI-H460 = tested on: NCI-H460
SK-MEL-5 = tested on: SK-MEL-5
SK-OV-3 = tested on: SK-OV-3
SN12C = tested on: SN12C
U-251 = tested on: U-251
HT-29 = tested on: HT-29
SK-MEL-28 = tested on: SK-MEL-28
CCRF-CEM = tested on: CCRF-CEM

Structure (SMILES) | GI50 (UO-31) | GI50 (IGROV-1) | GI50 (HL-60) | GI50 (KM12) | GI50 (OVCAR-8) | GI50 (OVCAR-4) | GI50 (MOLT-4) | GI50 (NCI-H23) | GI50 (HCT-116) | GI50 (COLO 205) | GI50 (SNB-19) | GI50 (UACC-62) | GI50 (NCI-H460) | GI50 (SK-MEL-5) | GI50 (SK-OV-3) | GI50 (SN12C) | GI50 (U-251) | GI50 (HT-29) | GI50 (SK-MEL-28) | GI50 (CCRF-CEM)
O=C(CC1Sc2ccccc2NC1=O)Nc1ccccc1[N+](=O)[O-] (stereo unspecified) | > 100 µM (inactive) | > 100 µM (inactive) | > 100 µM (inactive) | > 100 µM (inactive) | > 100 µM (inactive) | > 100 µM (inactive) | 4.33 µM (inactive) | > 100 µM (inactive) | > 100 µM (inactive) | > 100 µM (inactive) | > 100 µM (inactive) | > 100 µM (inactive) | > 100 µM (inactive) | > 100 µM (inactive) | > 100 µM (inactive) | > 100 µM (inactive) | > 100 µM (inactive) | > 100 µM (inactive) | > 100 µM (inactive) | > 100 µM (inactive)
CCCCSCCC(N)P(=O)(O)O (stereo unspecified) | > 100 µM (inactive) | > 100 µM (inactive) | > 100 µM (inactive) | – | > 100 µM (inactive) | > 100 µM (inactive) | > 100 µM (inactive) | > 100 µM (inactive) | > 100 µM (inactive) | > 100 µM (inactive) | > 100 µM (inactive) | – | > 100 µM (inactive) | > 100 µM (inactive) | > 100 µM (inactive) | > 100 µM (inactive) | > 100 µM (inactive) | > 100 µM (inactive) | > 100 µM (inactive) | > 100 µM (inactive)
Cc1nc2c(n1C)C(=O)c1nc(CBr)[nH]c(=O)c1C2=O | > 100 µM (inactive) | > 100 µM (inactive) | 38.7 µM (inactive) | – | > 100 µM (inactive) | – | > 100 µM (inactive) | > 100 µM (inactive) | > 100 µM (inactive) | 51.5 µM (inactive) | > 100 µM (inactive) | > 100 µM (inactive) | > 100 µM (inactive) | 20.3 µM (inactive) | 75.7 µM (inactive) | > 100 µM (inactive) | > 100 µM (inactive) | 39.4 µM (inactive) | > 100 µM (inactive) | > 100 µM (inactive)
CCc1n[nH]c(=O)n1CC | > 100 µM (inactive) | > 100 µM (inactive) | 21.7 µM (inactive) | > 100 µM (inactive) | > 100 µM (inactive) | > 100 µM (inactive) | > 100 µM (inactive) | > 100 µM (inactive) | > 100 µM (inactive) | > 100 µM (inactive) | > 100 µM (inactive) | > 100 µM (inactive) | > 100 µM (inactive) | > 100 µM (inactive) | > 100 µM (inactive) | > 100 µM (inactive) | > 100 µM (inactive) | > 100 µM (inactive) | > 100 µM (inactive) | > 100 µM (inactive)
Cc1ccc(N2Cc3c(ccc4ccccc34)OP2(=S)N2CCCC2)cc1 (stereo unspecified) | 85.7 µM (inactive) | > 100 µM (inactive) | > 100 µM (inactive) | > 100 µM (inactive) | > 100 µM (inactive) | > 100 µM (inactive) | > 44.5 µM (inactive) | > 100 µM (inactive) | > 100 µM (inactive) | > 100 µM (inactive) | > 100 µM (inactive) | > 100 µM (inactive) | > 100 µM (inactive) | > 100 µM (inactive) | > 100 µM (inactive) | > 100 µM (inactive) | > 100 µM (inactive) | > 100 µM (inactive) | > 100 µM (inactive) | > 100 µM (inactive)
O=NN(CC1(O)OCC(O)C(O)C1O)C(Cc1c[nH]c2ccccc12)C(=O)O (stereo unspecified) | > 10 µM (inactive) | > 100 µM (inactive) | > 100 µM (inactive) | > 100 µM (inactive) | > 100 µM (inactive) | – | > 100 µM (inactive) | > 100 µM (inactive) | > 100 µM (inactive) | > 100 µM (inactive) | – | > 100 µM (inactive) | > 100 µM (inactive) | > 100 µM (inactive) | > 100 µM (inactive) | – | > 100 µM (inactive) | > 100 µM (inactive) | > 100 µM (inactive) | > 100 µM (inactive)
c1ccc2c(NCCCCCCCCNc3cccc4ccccc34)cccc2c1 | 26.2 µM (inactive) | 49.8 µM (inactive) | 22.7 µM (inactive) | > 100 µM (inactive) | 24.5 µM (inactive) | 28.2 µM (inactive) | 16.7 µM (inactive) | 25.3 µM (inactive) | 19.8 µM (inactive) | 18.6 µM (inactive) | > 100 µM (inactive) | 20.5 µM (inactive) | 21.7 µM (inactive) | > 10 µM (inactive) | > 100 µM (inactive) | 35.6 µM (inactive) | 63.2 µM (inactive) | 32.4 µM (inactive) | 19.5 µM (inactive) | 14.6 µM (inactive)
c1ccc(C2=NNC3c4ccccc4-c4ccccc4N3C2)cc1 (stereo unspecified) | 32.4 µM (inactive) | 31.6 µM (inactive) | 2.08 µM (inactive) | 37.1 µM (inactive) | 33.8 µM (inactive) | 37.9 µM (inactive) | 20 µM (inactive) | 26.1 µM (inactive) | 34 µM (inactive) | 18.4 µM (inactive) | 40 µM (inactive) | 16.4 µM (inactive) | 21.9 µM (inactive) | 15.9 µM (inactive) | 46.6 µM (inactive) | 35.3 µM (inactive) | 26.5 µM (inactive) | 39.5 µM (inactive) | 35.6 µM (inactive) | –
COc1cccc(NC(=O)CC(=O)NN2C(=O)/C(=C/c3ccc(N(CCC#N)CCC#N)cc3)N=C2c2cc([N+](=O)[O-])ccc2Cl)c1 | > 100 µM (inactive) | > 100 µM (inactive) | – | > 100 µM (inactive) | 45.8 µM (inactive) | 99.1 µM (inactive) | 3.53 µM (inactive) | > 100 µM (inactive) | > 100 µM (inactive) | > 100 µM (inactive) | > 100 µM (inactive) | 64.7 µM (inactive) | – | 42.2 µM (inactive) | > 100 µM (inactive) | > 100 µM (inactive) | 75.3 µM (inactive) | – | > 100 µM (inactive) | 0.499 µM (active)
O=C(OCCO)C1CC2CC1C1(C2)OCCO1 (stereo unspecified) | > 100 µM (inactive) | > 100 µM (inactive) | > 100 µM (inactive) | > 100 µM (inactive) | > 100 µM (inactive) | > 100 µM (inactive) | > 100 µM (inactive) | > 100 µM (inactive) | > 100 µM (inactive) | > 100 µM (inactive) | > 100 µM (inactive) | > 100 µM (inactive) | > 100 µM (inactive) | > 100 µM (inactive) | > 100 µM (inactive) | > 100 µM (inactive) | > 100 µM (inactive) | > 100 µM (inactive) | > 100 µM (inactive) | > 100 µM (inactive)
COc1cccc(-c2c(C#N)c(N)nc3c2CCS(=O)(=O)c2ccc(C)cc2-3)c1 | > 100 µM (inactive) | > 100 µM (inactive) | > 100 µM (inactive) | > 100 µM (inactive) | 43.8 µM (inactive) | 95.5 µM (inactive) | – | > 100 µM (inactive) | > 100 µM (inactive) | > 100 µM (inactive) | 56.2 µM (inactive) | > 100 µM (inactive) | > 100 µM (inactive) | > 100 µM (inactive) | – | > 100 µM (inactive) | > 100 µM (inactive) | > 100 µM (inactive) | > 100 µM (inactive) | > 100 µM (inactive)
COc1cccc(CCn2c(N)c(-c3cc(Cl)cc(Cl)c3)c3ccc([N+](=O)[O-])cc3c2=O)c1 | 2.68 µM (inactive) | 3.33 µM (inactive) | 0.811 µM (active) | 3.47 µM (inactive) | 3.81 µM (inactive) | 7.55 µM (inactive) | 1.88 µM (inactive) | 2.35 µM (inactive) | 2.84 µM (inactive) | 2.03 µM (inactive) | 3.21 µM (inactive) | 3.33 µM (inactive) | 3.04 µM (inactive) | 2.07 µM (inactive) | 8.89 µM (inactive) | 5 µM (inactive) | 3.63 µM (inactive) | 5.52 µM (inactive) | 4.84 µM (inactive) | 0.787 µM (active)
CC1(Cl)CC2C(CC1Sc1nnnn1-c1ccccc1)C2(C)C (stereo unspecified) | 37.5 µM (inactive) | > 100 µM (inactive) | 17.9 µM (inactive) | 55.6 µM (inactive) | > 100 µM (inactive) | > 100 µM (inactive) | 30.1 µM (inactive) | 64.3 µM (inactive) | 69.8 µM (inactive) | 83.8 µM (inactive) | 83.2 µM (inactive) | 98.9 µM (inactive) | 89.9 µM (inactive) | 58.2 µM (inactive) | – | > 100 µM (inactive) | – | > 100 µM (inactive) | > 100 µM (inactive) | 36.7 µM (inactive)
Cc1ccc(SSCCCCCS(=O)O)cc1 | 19.9 µM (inactive) | – | 16.6 µM (inactive) | 36.1 µM (inactive) | – | 40 µM (inactive) | 6.34 µM (inactive) | 28.2 µM (inactive) | 14.6 µM (inactive) | – | 35.4 µM (inactive) | 23.5 µM (inactive) | 48.5 µM (inactive) | – | > 100 µM (inactive) | 20.6 µM (inactive) | 11 µM (inactive) | 37.8 µM (inactive) | 46.5 µM (inactive) | 4.68 µM (inactive)
COC(=O)C1=C(C)C(=O)[C@H]2C(C(=O)OC)CCCC[C@@H]12 (stereo partly specified) | > 100 µM (inactive) | > 100 µM (inactive) | 30.2 µM (inactive) | > 100 µM (inactive) | > 100 µM (inactive) | > 100 µM (inactive) | 54.6 µM (inactive) | > 100 µM (inactive) | 83.9 µM (inactive) | > 100 µM (inactive) | > 100 µM (inactive) | > 100 µM (inactive) | > 100 µM (inactive) | 72.9 µM (inactive) | > 100 µM (inactive) | > 100 µM (inactive) | > 100 µM (inactive) | > 100 µM (inactive) | > 100 µM (inactive) | 40.5 µM (inactive)
